Columns and labels:
[1] = test system: S. lividans PH3816; test: Metabolism of 10001 by strains transformed with pCS325 (Example 15); assay type: in vitro ADME, Streptomyces lividans; settings: substrate 10001
Protocol: (§1) S. griseolus PH2003, S. griseus PH4001, S. ambofaciens PH4002, and S. lividans JI1326 were transformed with the plasmid pPAT108. The transformed S. griseolus strain, PH3826, was cultured for 24 hours in 150 mls of sporulation broth with 5 ug/ml thiostrepton. The transformed S. griseus strain, PH3832, and the transformed S. ambofaciens strain, PH3834, were cultured for 24 hours in 150 mls of trypticase soy broth with 5 ug/ml thiostrepton. The transformed S. lividans strain, PH3822, was similarly cultured in 150 mls of YEME broth with 5 ug/ml thiostrepton. Three hours before harvesting the cells, 50 mls of fresh medium of the same type with 5 ug/ml thiostrepton was added to each culture. The cells from each of the cultures were harvested by centrifugation, washed twice with 50 mMMOPS, pH7.2 and resuspended in five cell volumes of MOPS containing 0.2% glucose and 120 ug/ml of the sulfonylurea 10001. The cell suspensions were incubated at 30° C. with shaking and aliquots were removed at 0.5, 1, 2 and 4 hours. The supernatant of each aliquot was analyzed by HPLC and the concentration of the sulfonylurea compound 10001 and its metabolites 10002 and 10003 were determined.
(§2) S. griseolus PH2003, S. griseus PH4001, S. ambofaciens PH4002, and S. lividans JI1326 were transformed with the plasmid pCS325. Cells of the transformed strains of S. griseolus PH3809, S. griseus PH3817, S. ambofaciens PH3818, and S. lividans PH3816, were grown and treated as described in Example 14, and the concentrations of the sulfonylurea compound 10001 and its metabolites 10002 and 10003 were determined.

[2] = test system: leaves of transformed tobacco; test: Metabolism of 10001 in excised tobacco leaves (Example 20); assay type: in vitro ADME, Nicotiana tabacum; settings: plants transformed with pSSU-SU111 and pCab-SU131, 21 hours
Protocol: Plants were grown from tobacco seed produced by self-pollinated transformed plants in Metro-Mix® 350 under 16 hour light (light intensity of 400 μEinsteins per second per square meter at pot level, 22° C. and 80% relative humidity) followed by 8 hours of dark (18° C. and 70 to 80% relative humidity) and watered three times daily with half strength Hoagland's solution. The presence of the cytochrome P450 protein in individual plants was confirmed by Western blot analysis before testing for sulfonylurea metabolism.
During growth, the tobacco plants produced leaves attached to the main stalk, none of which were of the same age or size. […]
Individual leaves were extracted with 30 ml acetone/water (80%/20% by volume) for 1 minute in a Sorvall® Omni-Mixer. […] 10015 and its metabolites were detected at 254 nm while ^14 C-10001 and its metabolites were detected with a Radiomatic Flo-One® detector. A diode array detector was used in separate experiments to obtain the absorbance spectra of the 10015 metabolite and an 10014 standard in the HPLC analysis of several extracts (HPLC method is described in Romesser et al., Biochem. Biophys. Res. Comm., 140:650-659 (1986)). Comparison of the metabolite absorbance spectrum with that of the 10014 confirmed the metabolite's identity. […]

[3] = test system: S. griseolus PH3809; test: Metabolism of 10001 by strains transformed with pCS325 (Example 15); assay type: in vitro ADME, Streptomyces griseolus; settings: substrate 10001
Protocol: as §1, §2

[4] = test system: S. griseus PH4001; test: Metabolism of 10001 by untransformed strain (Example 14); assay type: in vitro ADME, Streptomyces griseus; settings: substrate 10001 120 ug/ml

Compound	concentration in supernatant ([1]; 0.5 h) [µM]	concentration in supernatant ([1]; 1.0 h) [µM]	concentration in supernatant ([1]; 2.0 h) [µM]	concentration in supernatant ([1]; 4.0 h) [µM]	metabolite production versus leaf tissue of pAGS112 plants ([2]; substrate 10001)	concentration in supernatant ([3]; 0.5 h) [µM]	concentration in supernatant ([3]; 1.0 h) [µM]	concentration in supernatant ([3]; 2.0 h) [µM]	concentration in supernatant ([3]; 4.0 h) [µM]	concentration in supernatant ([4]; 1.0 h) [µM]	concentration in supernatant ([4]; 4.0 h) [µM]	extent of metabolism versus leaf tissue of pAGS112 plants [2]
CCOC(=O)c1ccccc1S(=O)(=O)NC(=O)Nc1nc(O)cc(Cl)n1 [compound 10002, N-[(4-chloro-6-hydroxy-pyrimidin-2-yl)aminocarbonyl]-2-ethoxycarbonylbenzenesulfonamide]	19	36	68	103	more 10002 was produced							
COc1cc(Cl)nc(NC(=O)NS(=O)(=O)c2ccccc2C(=O)O)n1 [compound 10003, N-[(4-chloro-6-methoxy-pyrimidin-2-yol)aminocarbonyl]-2-carboxybenzenesulfonamide]	1	3	7	11		6	16	24	25	1	4	
CCOC(=O)c1ccccc1S(=O)(=O)NC(=O)Nc1nc(Cl)cc(OC)n1 [compound 10001, N-[(4-chloro-6-methoxy-pyrimidin-2-yl)aminocarbonyl]-2-ethoxycarbonylbenzenesulfonamide]	331	339	299	248		175	108	0	0	370	377	metabolized to a significantly greater extent

Reference: patent US5349127A, “Expression of herbicide metabolizing cytochromes P450” (priority 1992, dated 1994)
